Reference: patent publication US20210161868A1, “ANTI-INFLAMMATORY THERAPY IN ARRHYTHMOGENIC CARDIOMYOPATHY (ACM)” (Beth Israel Deaconess Medical Center, Inc., priority 2018, published 2021)
“Also recorded” adds a separate entry of the source.

Tested on: neonatal rat ventricular myocytes (NRVMs) expressing JUP^2157del2
Experiment: In vitro apoptosis assay (TUNEL) in NRVMs expressing mutant plakoglobin
Format: cell-based
Conditions: transfected NRVMs, 24 hours
Procedure: Primary cultures were prepared from disaggregated ventricles of 1-day-old Wistar rat pups (Charles River) as previously described.^15 Cell suspensions were pre-plated to reduce fibroblast content, placed in collagen-coated chamber slides at a density of 2.4×10^5 cells/cm^2, and grown for 4 days at 37° C. in M199 medium (GIBCO) (supplemented with penicillin, 20 U/mL; streptomycin, 20 μg/mL; 10% neonatal calf serum and 0.1 mM bromodeoxyuridine) in a humidified atmosphere containing 1% CO2. Epinephrine (0.01 μmol/mL) was added during the first 24 hours of culture. At 24 hours post-seeding, cultures were transfected with an adenoviral construct expressing plakoglobin (JUP) with the 2157del2 mutation, as previously reported.^15 At 24 hours post-transfection, cultures were treated with Bay11-7082 (Sigma, […]) for an additional 24 hours. Transfected cultures treated with vehicle only (DMSO) and non-transfected cultures were used for control purposes.
Terminal deoxynucleotidyl transferase dUTP nick end labeling (TUNEL) was performed on neonatal rat myocyte cultures according to the manufacturer's protocol (Millipore, S7110). The number of TUNEL-positive nuclei was counted in 5 randomly selected high-power fields in each culture well and expressed as a per cent of total nuclei visualized with DAPI.

SMILES: Cc1ccc(S(=O)(=O)/C=C/C#N)cc1 [Bay 11-7082]
- myocyte apoptosis, TUNEL labeling: normalization; also recorded: returned to control levels
